From BindingDB's records for doi:10.1016/j.bioorg.2015.06.006 (Hazara University, 2015)
pIC50: −log10 of the molar value.

target: Alpha-glucosidase MAL12 (Saccharomyces cerevisiae (strain ATCC 204508 / S288c), UniProt P53341); experiment: Alpha-glucosidase Assay; conditions: pH 6.8
Experimental: Total volume of 100 µL reaction mixture contained 70 µL 50 mM phosphate buffer pH 6.8, 10 µL test compound (0.5 mM in methanol) followed by the addition of 10 µL enzyme solution (0.057 units) in the buffer. The contents were mixed, pre-incubated for 10 min at 37 °C and pre-read at 400 nm. The reaction was initiated by the addition of 10 µL of 0.5 mM substrate (p-nitrophenyl glucopyranoside). After 30 min of incubation at 37 °C, absorbance of p-nitrophenol released was measured. Acarbose was used as positive control.

Chain of Alpha-glucosidase MAL12 (P53341 whole entry): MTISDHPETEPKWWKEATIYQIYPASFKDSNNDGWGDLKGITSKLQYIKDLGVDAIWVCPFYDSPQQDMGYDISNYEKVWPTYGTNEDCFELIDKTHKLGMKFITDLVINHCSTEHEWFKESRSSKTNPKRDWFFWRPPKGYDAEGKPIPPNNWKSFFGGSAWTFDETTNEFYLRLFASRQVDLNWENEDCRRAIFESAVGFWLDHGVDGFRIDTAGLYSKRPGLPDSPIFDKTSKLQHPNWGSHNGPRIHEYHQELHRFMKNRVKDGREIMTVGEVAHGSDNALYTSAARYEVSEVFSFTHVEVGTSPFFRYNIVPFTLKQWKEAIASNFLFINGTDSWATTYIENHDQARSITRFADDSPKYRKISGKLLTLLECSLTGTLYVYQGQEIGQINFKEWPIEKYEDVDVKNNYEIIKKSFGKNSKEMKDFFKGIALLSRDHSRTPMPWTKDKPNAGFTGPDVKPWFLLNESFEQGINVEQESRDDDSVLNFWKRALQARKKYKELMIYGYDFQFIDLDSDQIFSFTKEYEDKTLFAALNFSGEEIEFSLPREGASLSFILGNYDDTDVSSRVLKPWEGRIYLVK

With COc1ccc(-c2csc(N/N=C/c3ccc(OCc4ccccc4)cc3)n2)cc1 [(E)-2-(2-(4-(Benzyloxy)benzylidene)hydrazinyl)-4-(4-methoxyphenyl)thiazole (16)] as the compound, how does the pIC50 read?
The pIC50 was 4.00.

How did the pIC50 turn out when CN(C)c1ccc(/C=N/Nc2nc(-c3ccc(Cl)cc3)cs2)cc1 [(E)-4-((2-(4-(4-Chlorophenyl)thiazol-2-yl)hydrazono)methyl)-N,N-dimethyl-aniline (5)] was run?
Its pIC50 is 3.69.

How did the pIC50 turn out when Clc1ccc(-c2csc(N/N=C/c3ccc4ccccc4c3)n2)cc1 [(E)-4-(4-Chlorophenyl)-2-(2-(naphthalene-2-yl-methylene)hydrazinyl)thiazole (6)] was run?
The pIC50 was 3.76.

With COc1ccc(-c2csc(N/N=C/c3ccc(OC)c(O)c3)n2)cc1 [(E)-2-Methoxy-5-((2-(4-(4-methoxyphenyl)thiazol-2-yl)-hydrazono)methyl)-phenol (20)] as the compound, how does the pIC50 read?
The pIC50 was 3.76.

With C/C(=N\Nc1nc(-c2ccc(Cl)cc2)cs1)c1ccc([N+](=O)[O-])cc1Br [(E)-2-(2-(1-(2-Bromo-4-nitrophenyl)ethylidene)hydrazinyl)-4-(4-chlorophenyl)thiazole (2)] as the compound, how does the pIC50 read?
The pIC50 was 4.36.

With COc1ccc(-c2csc(N/N=C/c3cc(C(C)(C)C)c(O)c(C(C)(C)C)c3)n2)cc1 [(E)-2,6-Di-tert-butyl-4-((2-(4-(4-Methoxyphenyl)thiazol-2-yl)hydrazono)-methyl)phenol (17)] as the compound, how does the pIC50 read?
The pIC50 was 3.91.

How did the pIC50 turn out when COc1ccc(-c2csc(N/N=C/c3ccc(O)c(O)c3)n2)cc1 [(E)-4-((2-(4-(4-Methoxyphenyl)thiazol-2-yl)hydrazono)-methyl)benzene-1,2-diol (21)] was run?
The pIC50 was 4.33.

With COc1ccc(-c2csc(N/N=C/c3ccc(/C=N/Nc4ncc(-c5ccc(OC)cc5)s4)cc3)n2)cc1 [5-(4-methoxyphenyl)-2-((E)-2-(4-((E)-(2-(4-(4-methoxyphenyl)thiazol-2-yl)hydrazono)methyl)benzylidene)-hydrazinyl)thiazole (19)] as the compound, how does the pIC50 read?
Its pIC50 is 3.65.

With COc1ccc(/C=N/Nc2nc(-c3ccc(Cl)cc3)cs2)cc1O [(E)-5-((2-(4-(4-Chlorophenyl)thiazole-2-yl)hydrazono)-methyl)-2-methoxy-phenol (11)] as the compound, how does the pIC50 read?
The pIC50 was 3.75.

Clc1ccc(-c2csc(N/N=C/c3ccc(OCc4ccccc4)cc3)n2)cc1 [(E)-2-(2-(4-(Benzyloxy)benzylidene)hydrazinyl)-4-(4-chlorophenyl)thiazole (7)] was tested. Which pIC50 did it give?
The pIC50 was 4.43.

How did the pIC50 turn out when Clc1ccc(-c2csc(N/N=C/c3ccc(/C=N/Nc4ncc(-c5ccc(Cl)cc5)s4)cc3)n2)cc1 [5-(4-chlorophenyl)-2-((E)-2-(4-((E)-(2-(4-(4-chlorophenyl)-thiazol-2-yl)hydrazono)methyl)benzylidene)hydrazinyl)thiazole (10)] was run?
Its pIC50 is 3.47.

COc1ccc(-c2csc(N/N=C\c3cccc(/C=N/Nc4nc(-c5ccc(OC)cc5)cs4)c3)n2)cc1 [1-((E)-(2-(4-(4-Methoxyphenyl)thiazol-2-yl)hydrazono)-methyl)-3-((Z)-(2-(4-(4-methoxyphenyl)thiazol-2-yl)hydrazono)-methyl)benzene (18)] was tested. Which pIC50 did it give?
The pIC50 was 4.26.

With COc1ccc(-c2csc(N/N=C/c3ccc4ccccc4c3)n2)cc1 [(E)-4-(4-Methoxyphenyl)-2-(2-(naphthalen-2-yl-methylene)-hydrazinyl)thiazole (15)] as the compound, how does the pIC50 read?
The pIC50 was 3.71.

COc1ccc(-c2csc(N/N=C/c3c4ccccc4cc4ccccc34)n2)cc1 [(E)-2-(2-(Anthracen-9-ylmethylene)hydrazinyl)-4-(4-methoxyphenyl)thiazole (13)] was tested. Which pIC50 did it give?
Its pIC50 is 3.72.

With O=[N+]([O-])c1ccccc1/C=N/Nc1nc(-c2ccc(Cl)cc2)cs1 [(E)-4-(4-Chlorophenyl)-2-(2-(2-nitrobenzylidene)hydrazinyl)-thiazole (3)] as the compound, how does the pIC50 read?
The pIC50 was 3.62.

How did the pIC50 turn out when O=[N+]([O-])c1cccc(/C=N/Nc2nc(-c3ccc(Cl)cc3)cs2)c1 [(E)-4-(4-Chlorophenyl)-2-(2-(3-nitrobenzylidene)hydrazinyl)-thiazole (1)] was run?
The pIC50 was 3.66.

C/C(=N\Nc1nc(-c2ccc(Cl)cc2)cs1)c1ccc(N2CCCCC2)cc1 [(E)-4-(4-Chlorophenyl)-2-(2-(1-(4-(piperidin-1-yl)phenyl)-ethylidene)hydrazinyl)thiazole (4)] was tested. Which pIC50 did it give?
Its pIC50 is 3.41.

How did the pIC50 turn out when CC(C)(C)c1cc(/C=N/Nc2nc(-c3ccc(Cl)cc3)cs2)cc(C(C)(C)C)c1O [(E)-2,6-Di-t-butyl-4-((2-(4-(4-Chlorophenyl)thiazole-2-yl)-hydrazono)methyl)-phenol (8)] was run?
The pIC50 was 4.74.

COc1ccc(-c2csc(N/N=C(\C)c3cccc([N+](=O)[O-])c3)n2)cc1 [(E)-4-(4-Methoxyphenyl)-2-(2-(1-(3-nitrophenyl)-ethylidene)hydrazinyl)thiazole (12)] was tested. Which pIC50 did it give?
The pIC50 was 3.37.

With Clc1ccc(-c2csc(N/N=C\c3cccc(/C=N/Nc4nc(-c5ccc(Cl)cc5)cs4)c3)n2)cc1 [1-((E)-(2-(4-(4-chlorophenyl)thiazol-2-yl)hydrazono)methyl)-3-((Z)-(2-(4-(4-chlorophenyl)thiazol-2-yl)hydrazono)methyl)benzene (9)] as the compound, how does the pIC50 read?
The pIC50 was 4.16.

COc1ccc(-c2csc(N/N=C/c3ccc(N(C)C)cc3)n2)cc1 [(E)-4-((2-(4-(4-Methoxyphenyl)thiazol-2-yl)hydrazono)-methyl)-N,N-dimethylaniline (14)] was tested. Which pIC50 did it give?
Its pIC50 is 3.84.
